From ChEMBL document CHEMBL1275550, “In vitro activity of doripenem, a carbapenem for the treatment of challenging infections caused by gram-negative bacteria, against recent clinical isolates from the United States” (2008)
Values after ≈ are worked out from the molar mass of the structure shown.

Assays:
Format in all cases: functional
[1] = tested on: Enterobacteriaceae; test: Antimicrobial activity against ceftazidime-susceptible Enterobacteriaceae by broth microdilution method
[2] = tested on: Enterobacteriaceae; test: Antimicrobial activity against Ceftazidime non-susceptible Enterobacteriaceae by broth microdilution method
[3] = tested on: Enterobacteriaceae; test: Antimicrobial activity against ceftazidime-susceptible Enterobacteriaceae assessed as susceptible isolate by broth microdilution method
[4] = tested on: Enterobacteriaceae; test: Antimicrobial activity against ceftazidime-susceptible Enterobacteriaceae assessed as intermediate isolate by broth microdilution method
[5] = tested on: Enterobacteriaceae; test: Antimicrobial activity against ceftazidime-susceptible Enterobacteriaceae assessed as resistant isolate by broth microdilution method
[6] = tested on: Enterobacteriaceae; test: Antimicrobial activity against Ceftazidime non-susceptible Enterobacteriaceae assessed as susceptible isolate by broth microdilution method
[7] = tested on: Enterobacteriaceae; test: Antimicrobial activity against Ceftazidime non-susceptible Enterobacteriaceae assessed as intermediate isolate by broth microdilution method
[8] = tested on: Enterobacteriaceae; test: Antimicrobial activity against Ceftazidime non-susceptible Enterobacteriaceae assessed as resistant isolate by broth microdilution method
[9] = tested on: Escherichia coli; test: Antimicrobial activity against Non-ESBL Escherichia coli by broth microdilution method
[10] = tested on: Escherichia coli; test: Antimicrobial activity against ESBL producing Escherichia coli by broth microdilution method
[11] = tested on: Escherichia coli; test: Antimicrobial activity against Non-ESBL Escherichia coli assessed as susceptible isolate by broth microdilution method
[12] = tested on: Escherichia coli; test: Antimicrobial activity against Non-ESBL Escherichia coli assessed as intermediate isolate by broth microdilution method
[13] = tested on: Escherichia coli; test: Antimicrobial activity against Non-ESBL Escherichia coli assessed as resistant isolate by broth microdilution method
[14] = tested on: Escherichia coli; test: Antimicrobial activity against ESBL producing Escherichia coli assessed as susceptible isolate by broth microdilution method
[15] = tested on: Escherichia coli; test: Antimicrobial activity against ESBL producing Escherichia coli assessed as intermediate isolate by broth microdilution method
[16] = tested on: Escherichia coli; test: Antimicrobial activity against ESBL producing Escherichia coli assessed as resistant isolate by broth microdilution method
[17] = tested on: Klebsiella pneumoniae; test: Antimicrobial activity against Non-ESBL Klebsiella pneumoniae by broth microdilution method
[18] = tested on: Klebsiella pneumoniae; test: Antimicrobial activity against ESBL producing Klebsiella pneumoniae by broth microdilution method
[19] = tested on: Klebsiella pneumoniae; test: Antimicrobial activity against Non-ESBL Klebsiella pneumoniae assessed as susceptible isolate by broth microdilution method
[20] = tested on: Klebsiella pneumoniae; test: Antimicrobial activity against Non-ESBL Klebsiella pneumoniae assessed as intermediate isolate by broth microdilution method
[21] = tested on: Klebsiella pneumoniae; test: Antimicrobial activity against ESBL producing Klebsiella pneumoniae assessed as susceptible isolate by broth microdilution method
[22] = tested on: Klebsiella pneumoniae; test: Antimicrobial activity against ESBL producing Klebsiella pneumoniae assessed as intermediate isolate by broth microdilution method
[23] = tested on: Klebsiella pneumoniae; test: Antimicrobial activity against ESBL producing Klebsiella pneumoniae assessed as resistant isolate by broth microdilution method
[24] = tested on: Proteus mirabilis; test: Antimicrobial activity against Non-ESBL Proteus mirabilis by broth microdilution method
[25] = tested on: Proteus mirabilis; test: Antimicrobial activity against ESBL producing Proteus mirabilis by broth microdilution method
[26] = tested on: Proteus mirabilis; test: Antimicrobial activity against Non-ESBL Proteus mirabilis assessed as susceptible isolate by broth microdilution method
[27] = tested on: Proteus mirabilis; test: Antimicrobial activity against Non-ESBL Proteus mirabilis assessed as intermediate isolate by broth microdilution method
[28] = tested on: Proteus mirabilis; test: Antimicrobial activity against ESBL producing Proteus mirabilis assessed as susceptible isolate by broth microdilution method
[29] = tested on: Proteus mirabilis; test: Antimicrobial activity against ESBL producing Proteus mirabilis assessed as intermediate isolate by broth microdilution method
[30] = tested on: Enterobacter cloacae; test: Antimicrobial activity against Enterobacter cloacae with nonderepressed AmpC beta-lactamsae by broth microdilution method
[31] = tested on: Enterobacter cloacae; test: Antimicrobial activity against Enterobacter cloacae with derepressed AmpC beta-lactamsae by broth microdilution method
[32] = tested on: Enterobacter cloacae; test: Antimicrobial activity against Enterobacter cloacae with nonderepressed AmpC beta-lactamsae assessed as susceptible isolate by broth microdilution method
[33] = tested on: Enterobacter cloacae; test: Antimicrobial activity against Enterobacter cloacae with nonderepressed AmpC beta-lactamsae assessed as intermediate isolate by broth microdilution method
[34] = tested on: Enterobacter cloacae; test: Antimicrobial activity against Enterobacter cloacae with nonderepressed AmpC beta-lactamsae assessed as resistant isolate by broth microdilution method
[35] = tested on: Enterobacter cloacae; test: Antimicrobial activity against Enterobacter cloacae with derepressed AmpC beta-lactamsae assessed as susceptible isolate by broth microdilution method
[36] = tested on: Enterobacter cloacae; test: Antimicrobial activity against Enterobacter cloacae with derepressed AmpC beta-lactamsae assessed as intermediate isolate by broth microdilution method
[37] = tested on: Enterobacter cloacae; test: Antimicrobial activity against Enterobacter cloacae with derepressed AmpC beta-lactamsae assessed as resistant isolate by broth microdilution method
[38] = tested on: Citrobacter; test: Antimicrobial activity against Citrobacter with nonderepressed AmpC beta-lactamsae by broth microdilution method
[39] = tested on: Citrobacter; test: Antimicrobial activity against Citrobacter with derepressed AmpC beta-lactamsae by broth microdilution method
[40] = tested on: Citrobacter; test: Antimicrobial activity against Citrobacter with nonderepressed AmpC beta-lactamsae assessed as susceptible isolate by broth microdilution method
[41] = tested on: Citrobacter; test: Antimicrobial activity against Citrobacter with nonderepressed AmpC beta-lactamsae assessed as intermediate isolate by broth microdilution method
[42] = tested on: Citrobacter; test: Antimicrobial activity against Citrobacter with derepressed AmpC beta-lactamsae assessed as susceptible isolate by broth microdilution method
[43] = tested on: Citrobacter; test: Antimicrobial activity against Citrobacter with derepressed AmpC beta-lactamsae assessed as resistant isolate by broth microdilution method
[44] = tested on: Serratia marcescens; test: Antimicrobial activity against Ceftazidime susceptible Serratia marcescens by broth microdilution method
[45] = tested on: Serratia marcescens; test: Antimicrobial activity against Ceftazidime non-susceptible Serratia marcescens by broth microdilution method
[46] = tested on: Serratia marcescens; test: Antimicrobial activity against Ceftazidime susceptible Serratia marcescens assessed as susceptible isolate by broth microdilution method
[47] = tested on: Serratia marcescens; test: Antimicrobial activity against Ceftazidime susceptible Serratia marcescens assessed as intermediate isolate by broth microdilution method
[48] = tested on: Serratia marcescens; test: Antimicrobial activity against Ceftazidime susceptible Serratia marcescens assessed as resistant isolate by broth microdilution method
[49] = tested on: Serratia marcescens; test: Antimicrobial activity against Ceftazidime non-susceptible Serratia marcescens assessed as susceptible isolate by broth microdilution method
[50] = tested on: Serratia marcescens; test: Antimicrobial activity against Ceftazidime non-susceptible Serratia marcescens assessed as intermediate isolate by broth microdilution method
[51] = tested on: Serratia marcescens; test: Antimicrobial activity against Ceftazidime non-susceptible Serratia marcescens assessed as resistant isolate by broth microdilution method
[52] = tested on: Streptococcus pneumoniae; test: Antimicrobial activity against penicillin-intermediate Streptococcus pneumoniae assessed as intermediate isolate by broth microdilution method
[53] = tested on: Streptococcus pneumoniae; test: Antimicrobial activity against penicillin-resistant Streptococcus pneumoniae assessed as resistant isolate by broth microdilution method
[54] = tested on: Staphylococcus aureus; test: Antimicrobial activity against methicillin-susceptible Staphylococcus aureus by broth microdilution method
[55] = tested on: Staphylococcus aureus; test: Antimicrobial activity against methicillin-susceptible Staphylococcus aureus assessed as susceptible isolate by broth microdilution method
[56] = tested on: Staphylococcus; test: Antimicrobial activity against methicillin-susceptible coagulase-negative Staphylococcus by broth microdilution method
[57] = tested on: Staphylococcus; test: Antimicrobial activity against methicillin-susceptible coagulase-negative Staphylococcus assessed as susceptible isolate by broth microdilution method
[58] = tested on: Streptococcus pneumoniae; test: Antimicrobial activity against penicillin-susceptible Streptococcus pneumoniae by broth microdilution method
[59] = tested on: Streptococcus pneumoniae; test: Antimicrobial activity against penicillin-resistant Streptococcus pneumoniae by broth microdilution method
[60] = tested on: Streptococcus pneumoniae; test: Antimicrobial activity against […] assessed as susceptible isolate by broth microdilution method
[61] = Streptococcus pneumoniae, read-out: MIC90

Q: For CO/N=C(\C(=O)N[C@@H]1C(=O)N2C(C(=O)O)=C(CSc3nc(=O)c(O)nn3C)CS[C@H]12)c1csc(N)n1 [CEFTRIAXONE], which MIC50 [1] is on record?
A: 0.03 µg/mL (≈ 0.0541 µM)

Q: And the MIC90 [1]?
A: 0.25 µg/mL (≈ 0.451 µM)

Q: What about the MIC50 [2] of the same compound?
A: > 64 µg/mL

Q: What about the MIC90 [2] of the same compound?
A: > 64 µg/mL

Q: And the Activity [3]?
A: 99.3%

Q: And the Activity [4]?
A: 0.4%

Q: What about the Activity [5] of the same compound?
A: 0.3%

Q: What about the Activity [6] of the same compound?
A: 7.6%

Q: What about the Activity [7] of the same compound?
A: 26.9%

Q: What about the Activity [8] of the same compound?
A: 65.4%

Q: And the MIC50 [9]?
A: 0.03 µg/mL (≈ 0.0541 µM)

Q: And the MIC90 [9]?
A: 0.06 µg/mL (≈ 0.108 µM)

Q: And the MIC50 [10]?
A: > 64 µg/mL

Q: And the MIC90 [10]?
A: > 64 µg/mL

Q: And the Activity [11]?
A: 98.7%

Q: What about the Activity [12] of the same compound?
A: 1.1%

Q: What about the Activity [13] of the same compound?
A: 0.2%

Q: And the Activity [14]?
A: 20%

Q: What about the Activity [15] of the same compound?
A: 13.3%

Q: And the Activity [16]?
A: 66.7%

Q: And the MIC50 [17]?
A: 0.03 µg/mL (≈ 0.0541 µM)

Q: And the MIC90 [17]?
A: 0.12 µg/mL (≈ 0.216 µM)

Q: What about the MIC50 [18] of the same compound?
A: 64 µg/mL (≈ 115 µM)

Q: What about the MIC90 [18] of the same compound?
A: > 64 µg/mL

Q: What about the Activity [19] of the same compound?
A: 99.3%

Q: And the Activity [20]?
A: 0.3%

Q: What about the Activity [21] of the same compound?
A: 9.1%

Q: And the Activity [22]?
A: 8.2%

Q: What about the Activity [23] of the same compound?
A: 72.7%

Q: And the MIC [24]?
A: ≤ 0.015 µg/mL

Q: And the MIC50 [24]?
A: ≤ 0.015 µg/mL

Q: What about the MIC90 [24] of the same compound?
A: ≤ 0.015 µg/mL

Q: What about the MIC [25] of the same compound?
A: 0.06 µg/mL (≈ 0.108 µM)

Q: What about the Activity [26] of the same compound?
A: 99.7%

Q: And the Activity [27]?
A: 0.3%

Q: What about the Activity [28] of the same compound?
A: 100%

Q: What about the Activity [29] of the same compound?
A: 0%

Q: What about the MIC50 [30] of the same compound?
A: 0.25 µg/mL (≈ 0.451 µM)

Q: What about the MIC90 [30] of the same compound?
A: 4 µg/mL (≈ 7.21 µM)

Q: And the MIC50 [31]?
A: > 64 µg/mL

Q: What about the MIC90 [31] of the same compound?
A: > 64 µg/mL

Q: What about the Activity [32] of the same compound?
A: 91.9%

Q: And the Activity [33]?
A: 4.7%

Q: What about the Activity [34] of the same compound?
A: 3.5%

Q: And the Activity [35]?
A: 0%

Q: What about the Activity [36] of the same compound?
A: 6.8%

Q: And the Activity [37]?
A: 93.2%

Q: And the MIC50 [38]?
A: 0.12 µg/mL (≈ 0.216 µM)

Q: What about the MIC90 [38] of the same compound?
A: 0.5 µg/mL (≈ 0.902 µM)

Q: What about the MIC50 [39] of the same compound?
A: 64 µg/mL (≈ 115 µM)

Q: And the MIC90 [39]?
A: > 64 µg/mL

Q: What about the Activity [40] of the same compound?
A: 97.8%

Q: And the Activity [41]?
A: 1.1%

Q: What about the Activity [42] of the same compound?
A: 1.8%

Q: What about the Activity [43] of the same compound?
A: 54.5%

Q: And the MIC50 [44]?
A: 0.25 µg/mL (≈ 0.451 µM)

Q: What about the MIC90 [44] of the same compound?
A: 1 µg/mL (≈ 1.8 µM)

Q: What about the MIC50 [45] of the same compound?
A: 64 µg/mL (≈ 115 µM)

Q: And the MIC90 [45]?
A: > 64 µg/mL

Q: And the Activity [46]?
A: 98.1%

Q: What about the Activity [47] of the same compound?
A: 1.4%

Q: What about the Activity [48] of the same compound?
A: 0.6%

Q: And the Activity [49]?
A: 10%

Q: And the Activity [50]?
A: 30%

Q: And the Activity [51]?
A: 60%

Q: C[C@@H](O)[C@H]1C(=O)N2C(C(=O)O)=C(S[C@@H]3CN[C@H](C(=O)Nc4cccc(C(=O)O)c4)C3)[C@H](C)[C@H]12 was tested. Which Activity [52] did it give?
A: 94.5%

Q: What about the Activity [53] of the same compound?
A: 39.6%

Q: And the MIC90 [54]?
A: 0.5 µg/mL (≈ 1.05 µM)

Q: What about the MIC90 ([54]; Staphylococcus aureus, read-out: MIC90) of the same compound?
A: 0.25 µg/mL (≈ 0.526 µM)

Q: And the Activity [55]?
A: 99.4%

Q: And the MIC90 [56]?
A: 0.5 µg/mL (≈ 1.05 µM)

Q: And the MIC90 ([56]; Staphylococcus, read-out: MIC90)?
A: 0.25 µg/mL (≈ 0.526 µM)

Q: What about the Activity [57] of the same compound?
A: 99.4%

Q: And the MIC90 [58]?
A: 0.03 µg/mL (≈ 0.0631 µM)

Q: What about the MIC90 [58, 61] of the same compound?
A: 0.03 µg/mL (≈ 0.0631 µM)

Q: What about the MIC90 [59] of the same compound?
A: 2 µg/mL (≈ 4.21 µM)

Q: What about the MIC90 [59, 61] of the same compound?
A: 2 µg/mL (≈ 4.21 µM)

Q: What about the Activity [60] of the same compound?
A: 100%
